Results: patent US20250332300A1 (priority 2024, published 2025)
Counter-ions that a name gives are not always drawn. Like-named read-outs stand apart in the source and are kept apart here. Starred links: 1 amine or outer side, 2 acyl side, 3 side chain; linkers in the order of their positions; H or OH if unused. Positions of bridges follow the written chain, without caps; N, C: chain ends. Non-standard residues stand in square brackets, D forms with d. Residues, ends and D or L forms follow the SMILES beside them. Nle(4-yne,6-yl) = O=C([C@H](CC#CC[*:3])N[*:1])[*:2]; Trp(5-OH) = N[C@@H](Cc1c[nH]c2ccc(O)cc12)C(=O)O; NMePhe(4-F) = CN[C@@H](Cc1ccc(F)cc1)C(=O)O; NMehPhe = CN[C@@H](CCc1ccccc1)C(=O)O; Aad = N[C@@H](CCCC(=O)O)C(=O)O; Gly(cPr) = N[C@H](C(=O)O)C1CC1; NMehCys = CN[C@@H](CCS)C(=O)O; NMeK = CN[C@@H](CCCCN)C(=O)O; NMeDap = CN[C@@H](CN)C(=O)O; NMeC = CN[C@@H](CS)C(=O)O; NMeS = CN[C@@H](CO)C(=O)O; hCys = N[C@@H](CCS)C(=O)O; Dap = NC[C@H](N)C(=O)O; X5 = O=C(C[*:2])[*:1]

Key:
Assay type in all cases: binding
[1] = molecular target: T1, human HER2 (23-652) (Homo sapiens, UniProt P04626); experiment: Surface plasmon resonance (SPR) for assessment of peptide affinity, human HER2; design: towards human HER2 (23-652) and mouse HER2 (23-653); made in house
In short: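 Binding kinetics fitted from sensorgrams with 280 s peptide association then 3000 s dissociation (30 uL/min), using HER2 (23-652) either directly immobilized (SA/CM5) or anti-Fc-captured; 3 M magnesium chloride used for regeneration.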

[2] = molecular target: T2, mouse HER2 (23-653) (Mus musculus, UniProt P70424); experiment: Surface plasmon resonance (SPR) for assessment of peptide affinity, mouse HER2; design: mouse HER2 (23-653) using a Cy5 labeled peptide as a probe; made in house; details: SPR, mouse HER2 extracellular domain, 25° C., 1:1 binding model; read-out: moHER2-SPR-ONC KD
Text: Each protein was immobilized either onto a SA sensorchip (Cytiva, BR-1005-31) or CM5 sensorchip (Cytiva, BR-1005-30) to a density of 800-2000 RU.

[3] = molecular target: T1, human HER2 (23-652); experiment: TR-FRET competition assay for peptide potency, human HER2; design: towards human HER2 (23-652) and mouse HER2 (23-653); made in house; host or cells: mammalian cells
[4] = molecular target: T2, mouse HER2 (23-653); experiment: TR-FRET competition assay for peptide potency, mouse HER2; design: mouse HER2 (23-653) using a Cy5 labeled peptide as a probe; made in house; host or cells: mammalian cells; details: TR-FRET competition with Cy5 labeled peptide probe, 0.1 nM mouse HER2, 24 h incubation; read-out: moHER2 TR-FRET IC50
[5] = SPR, human HER2 extracellular domain, 25° C., 1:1 binding model, read-out: huHER2-SPR-ONC KD
[6] = huHER2 TR-FRET IC50, TR-FRET competition with Cy5 labeled peptide probe, 0.1 nM human HER2, 24 h incubation

Row | SMILES | Kd [1, 5] [nM] | Kd [2] [nM] | IC50 ([3]; read-out: huHER2 TR-FRET IC50) [nM] | IC50 [4] [nM] | Kd [1] [nM] | IC50 [3, 6] [nM] | IC50 ([3]; huHER2 TR-FRET IC50, recalculated value achieved after further repetition, value in parentheses (**): recalculated after further repetition) [nM]
1 | CC(=O)NCCCC[C@H]1C(=O)N[C@@H](Cc2c[nH]c3ccc(O)cc23)C(=O)N[C@@H](C)C(=O)N[C@@H](C2CC2)C(=O)N(C)[C@H](C(=O)N(C)[C@@H](Cc2ccc(F)cc2)C(=O)N[C@@H](CCCCN)C(N)=O)CNC(=O)CCC[C@H](NC(C)=O)C(=O)N[C@@H](Cc2ccc(O)cc2)C(=O)N[C@@H](CO)C(=O)N(C)[C@@H](CCc2ccccc2)C(=O)N1C [Example A45, (3S,6S,9S,12S,15S,18S,21S,24S,27S)-27-acetamido-15-(4-acetamidobutyl)-6-cyclopropyl-N-((S)-1-(((S)-1,6-diamino-1-oxohexan-2-y1)amino)-3-(4-fluorophenyl)-1-oxopropan-2-y1)-12-((5-hydroxy-1H-indol-3-yl)methyl)-24-(4-hydroxybenzyl)-21-(hydroxymethyl)-N,4,9,16,19-pentamethyl-5,8,11,14,17,20,23,26,31-nonaoxo-18-phenethyl-1,4,7,10,13,16,19,22,25-nonaazacyclohentriacontane-3-carboxamide TFA salt] (Ac-[Aad]YS[NMehPhe][NMeK](Ac)[Trp(5-OH)]A[Gly(cPr)][NMeDap][NMePhe(4-F)]K-NH2; lactam 1-9) | > 6000 | > 6000 | > 900 | > 1000 | – | – | –
2 | CN1C(=O)[C@H](CO)NC(=O)[C@H](Cc2ccc(O)cc2)NC(=O)[C@@H](N)CC#CCSC[C@@H](C(=O)N(C)[C@@H](Cc2ccc(F)cc2)C(N)=O)N(C)C(=O)[C@H](C2CC2)NC(=O)[C@H](Cc2c[nH]c3ccccc23)NC(=O)[C@H](Cc2c[nH]c3ccc(O)cc23)NC(=O)[C@H](CO)N(C)C(=O)[C@@H]1CCc1ccccc1 [Example A52, (3R,6S,9S,12S,15S,18S,21S,24S,27S)-9-((1H-indol-3-yl)methyl)-27-amino-N—((S)-1-amino-3-(4-fluorophenyl)-1-oxopropan-2-yl)-6-cyclopropyl-12-((5-hydroxy-1H-indol-3-yl)methyl)-24-(4-hydroxybenzyl)-15,21-bis(hydroxymethyl)-N,4,16,19-tetramethyl-5,8,11,14,17,20,23,26-octaoxo-18-phenethyl-1-thia-4,7,10,13,16,19,22,25-octaazacyclohentriacont-29-yne-3-carboxamide TFA salt] (H-[Nle(4-yne,6-yl)]YS[NMehPhe][NMeS][Trp(5-OH)]W[Gly(cPr)][NMeC][NMePhe(4-F)]-NH2; thioether 1-9) | – | 570 | – | > 1000 | 997 | 427 | 567
3 | CN1C(=O)[C@H](CO)NC(=O)[C@H](Cc2ccc(O)cc2)NC(=O)[C@@H](N)CNC(=O)CSC[C@@H](C(=O)N(C)[C@@H](Cc2ccc(F)cc2)C(N)=O)N(C)C(=O)[C@H](C2CC2)NC(=O)[C@H](Cc2c[nH]c3ccccc23)NC(=O)[C@H](Cc2c[nH]c3ccc(O)cc23)NC(=O)[C@H](CO)N(C)C(=O)[C@@H]1CCc1ccccc1 [Example A53, (3R,6S,9S,12S,15S,18S,21S,24S,27S)-9-((1H-indol-3-yl)methyl)-27-amino-N—((S)-1-amino-3-(4-fluorophenyl)-1-oxopropan-2-yl)-6-cyclopropyl-12-((5-hydroxy-1H-indol-3-yl)methyl)-24-(4-hydroxybenzyl)-15,21-bis(hydroxymethyl)-N,4,16,19-tetramethyl-5,8,11,14,17,20,23,26,30-nonaoxo-18-phenethyl-1-thia-4,7,10,13,16,19,22,25,29-nonaazacyclohentriacontane-3-carboxamide TFA salt] (H-[Dap]YS[NMehPhe][NMeS][Trp(5-OH)]W[Gly(cPr)][NMeC][NMePhe(4-F)]-NH2; linker 1-9 via X5) | – | 154 | – | 466 | 132 | 163 | –
4 | CN1C(=O)[C@H](CO)NC(=O)[C@H](Cc2ccc(O)cc2)NC(=O)[C@@H](N)CSSC[C@@H](C(=O)N(C)[C@@H](Cc2ccc(F)cc2)C(N)=O)N(C)C(=O)[C@H](C2CC2)NC(=O)[C@H](Cc2c[nH]c3ccccc23)NC(=O)[C@H](Cc2c[nH]c3ccc(O)cc23)NC(=O)[C@H](CO)N(C)C(=O)[C@@H]1CCc1ccccc1 [Example A54, (4R,7S,10S,13S,16S,19S,22S,25S,28R)-10-((1H-indol-3-yl)methyl)-28-amino-N—((S)-1-amino-3-(4-fluorophenyl)-1-oxopropan-2-yl)-7-cyclopropyl-13-((5-hydroxy-1H-indol-3-yl)methyl)-25-(4-hydroxybenzyl)-16,22-bis(hydroxymethyl)-N,5,17,20-tetramethyl-6,9,12,15,18,21,24,27-octaoxo-19-phenethyl-1,2-dithia-5,8,11,14,17,20,23,26-octaazacyclononacosane-4-carboxamide TFA salt] (H-CYS[NMehPhe][NMeS][Trp(5-OH)]W[Gly(cPr)][NMeC][NMePhe(4-F)]-NH2; disulfide 1-9) | – | 5310 | – | > 1000 | 1710 | > 1000 | –
5 | CC(=O)NCCCC[C@H]1C(=O)N[C@@H](Cc2c[nH]c3ccc(O)cc23)C(=O)N[C@@H](Cc2c[nH]c3ccccc23)C(=O)N[C@@H](C2CC2)C(=O)N(C)[C@H](C(=O)N(C)[C@@H](Cc2ccc(F)cc2)C(N)=O)CCSSCC[C@H](N)C(=O)N[C@@H](Cc2ccc(O)cc2)C(=O)N[C@@H](CO)C(=O)N(C)[C@@H](CCc2ccccc2)C(=O)N1C [Example A55, (5S,8S,11S,14S,17S,20S,23S,26S,29S)-11-((1H-indol-3-yl)methyl)-17-(4-acetamidobutyl)-29-amino-N-((S)-1-amino-3-(4-fluorophenyl)-1-oxopropan-2-y1)-8-cyclopropyl-14-((5-hydroxy-1H-indol-3-yl)methyl)-26-(4-hydroxybenzyl)-23-(hydroxymethyl)-N,6,18,21-tetramethyl-7,10,13,16,19,22,25,28-octaoxo-20-phenethyl-1,2-dithia-6,9,12,15,18,21,24,27-octaazacyclohentriacontane-5-carboxamide TFA salt] (H-[hCys]YS[NMehPhe][NMeK](Ac)[Trp(5-OH)]W[Gly(cPr)][NMehCys][NMePhe(4-F)]-NH2; disulfide 1-9) | 178 | 148 | 97 | 287 | – | – | –
6 | CC(=O)NCCCC[C@H]1C(=O)N[C@@H](Cc2c[nH]c3ccc(O)cc23)C(=O)N[C@@H](Cc2c[nH]c3ccccc23)C(=O)N[C@@H](C2CC2)C(=O)N(C)[C@H](C(=O)N(C)[C@@H](Cc2ccc(F)cc2)C(N)=O)CCSSC[C@H](N)C(=O)N[C@@H](Cc2ccc(O)cc2)C(=O)N[C@@H](CO)C(=O)N(C)[C@@H](CCc2ccccc2)C(=O)N1C [Example A56, (5S,8S,11S,14S,17S,20S,23S,26S,29R)-11-((1H-indol-3-yl)methyl)-17-(4-acetamidobutyl)-29-amino-N-((S)-1-amino-3-(4-fluorophenyl)-1-oxopropan-2-yl)-8-cyclopropyl-14-((5-hydroxy-1/-indol-3-y1)methyl)-26-(4-hydroxybenzyl)-23-(hydroxymethyl)-N,6,18,21-tetramethyl-7,10,13,16,19,22,25,28-octaoxo-20-phenethyl-1,2-dithia-6,9,12,15,18,21,24,27-octaazacyclotriacontane-5-carboxamide TFA salt] (H-CYS[NMehPhe][NMeK](Ac)[Trp(5-OH)]W[Gly(cPr)][NMehCys][NMePhe(4-F)]-NH2; disulfide 1-9) | 443 | 413 | 229 | 755 | – | – | –
7 | CN1C(=O)[C@H](CO)NC(=O)[C@H](Cc2ccc(O)cc2)NC(=O)[C@@H](N)CCSSC[C@@H](C(=O)N(C)[C@@H](Cc2ccc(F)cc2)C(N)=O)N(C)C(=O)[C@H](C2CC2)NC(=O)[C@H](Cc2c[nH]c3ccccc23)NC(=O)[C@H](Cc2c[nH]c3ccc(O)cc23)NC(=O)[C@H](CO)N(C)C(=O)[C@@H]1CCc1ccccc1 [Example A57, (4R,7S,10S,13S,16S,19S,22S,25S,28S)-10-((1H-indol-3-yl)methyl)-28-amino-N-((S)-1-amino-3-(4-fluorophenyl)-1-oxopropan-2-y1)-7-cyclopropyl-13-((5-hydroxy-1H-indol-3-y1)methyl)-25-(4-hydroxybenzyl)-16,22-bis(hydroxymethyl)-N,5,17,20-tetramethyl-6,9,12,15,18,21,24,27-octaoxo-19-phenethyl-1,2-dithia-5,8,11,14,17,20,23,26-octaazacyclotriacontane-4-carboxamide TFA salt] (H-[hCys]YS[NMehPhe][NMeS][Trp(5-OH)]W[Gly(cPr)][NMeC][NMePhe(4-F)]-NH2; disulfide 1-9) | 2000 | 1460 | > 1000 | > 1000 | – | – | –
